Series [1] in a line: Chemical stability of caged ABA in HEPES buffer/DMSO in the dark (HPLC). Type of series: physicochemical. The settings on record: 70% HEPES buffer/30% DMSO, 37° C., 24 h. Here is the method: FIG. 26. Chemical stability of ABA-DMNB. ABA-DMNB was incubated in 70% HEPES buffer/30% DMSO at 37° C. for 24 h in the dark. The samples were analyzed by HPLC.
FIG. 32. Chemical stability of ABA-DEACM. ABA-DEACM was incubated in 70% HEPES buffer/30% DMSO at 37° C. for 24 h in the dark. The samples were analyzed by HPLC and absorbance was monitored at 250 nm.
HPLC analysis: Reversed-phase HPLC was performed on an ACCLAIM 120 (4.6×100 mm) C18 column (Thermo Fisher Scientific, Waltham, Mass.) with an ULTIMATE 3000 pump system, including a Variable Wavelength Detector 3100, Degasser 1210, and Autosampler SPS 3000 (Thermo Fisher Scientific, Waltham, Mass.). A mixture of water and acetonitrile containing 0.1% TFA was used as the eluent. Absorbance at 250 nm was used to monitor the elution of the molecules. The method used an increase in acetonitrile from 5% to 95% over 15 minutes to elute the molecules at a flow rate of 0.7 mL/min. The peaks for the molecules were integrated by using Chromeleon software (Thermo Fisher Scientific, Waltham, Mass.). The molar absorptivity of both free and caged ABA at 250 nm were measured, which was used to calculate the concentration of each species from the intensity of absorbance at 250 nm. […]

Series [2] deals with EGFP-PYL and NES-ABI in CHO cells. The series is described as follows: Light-induced EGFP-PYL nuclear export (fixed cells). The settings on record: for subcellular location of EGFP-PYL: CHO cells; for reversibility of EGFP nuclear exportation: washed with fresh media. In kind it is cell-based. The protocol: The ability to use light to control protein translocation through ABA-DMNB uncaging was evaluated next. Plasmids expressing EGFP-tagged PYL and nuclear export sequence (NES) peptide-linked ABI (FIG. 22A) were transfected into CHO cells. The transfected cells were then either treated or not treated with ABA, ABA-DMNB, or ABA-DMNB and irradiated for 60 seconds. Fluorescence microscopy analysis was used to determine subcellular locations of EGFP fusion proteins. […] Furthermore, the observed nuclear export of EGFP fusion protein can be readily reversed by washing away the uncaged ABA using fresh media. Thus, protein translocation can be induced by light through photo-uncaged ABA and can be readily reversed.
Slide preparation: Cells were grown on glass coverslips in 24-well plates. The coverslips were washed with phosphate-buffered saline (PBS) and fixed with 4% paraformaldehyde (PFA, 300 μL, prepared in PBS) at room temperature for 20 min. The cells were then washed twice with PBS and incubated with 1×DAPI in the dark at the room temperature for 5 min. After a final wash with PBS, the coverslips were mounted on a glass slide with VECTASHIELD (Vector Laboratories, Inc., Burlingame, Calif.) mounting media and allowed to stand for two hours in the dark before imaging.
Fluorescence microscopy imaging: Slides were imaged with an Axio Observer (Carl Zeiss AG, Oberkochen, Germany) microscope or with am LSM 510 Meta confocal microscope (Carl Zeiss AG, Oberkochen, Germany) mounted on an AxioObserver inverted microscope with a 63× oil objective. Images were taken with DAPI and GFP channels.
Statistical analysis of cell population: Cell were categorized as displaying nuclear export of EGFP when the fluorescent intensity of the nucleus was less than 60% of the intensity of the cytoplasm. […] Cells were counted from three separate experiments, with N>50 for each experiment.

Series [3] concerns HEK 293T inducible EGFP reporter cell line (VP-PYL and GAL4DBD-ABI). The experiment in a line: Light-induced EGFP expression. Type of series: cell-based. An excerpt: To confirm that the photo-regenerated ABA is biologically functional, we determined whether it can be employed to induce PYL-ABI dimerization in an ABA-inducible transcriptional activation system using an established HEK 293T inducible EGFP reporter cell line. The cell line was created with both the ABA-responsive split transcriptional activator DNA fragment (VP-PYL and GAL4DBD-ABI linked by IRES; Liang et al., 2011, Sci. Signal. 4, rs2) and an inducible EGFP DNA fragment (with 5×UAS and the IL-2 minimal promoter) inserted into the genome (FIG. 21A). EGFP expression was activated through the recruitment of VP16AD to the EGFP gene in the presence of ABA. 24 hours after plating the cells, 10 μM of ABA, pre-irradiated ABA-DMNB products, or non-irradiated ABA-DMNB were separately added to the cells and incubated for an additional eight hours. EGFP expression was then determined using a fluorescence microscopy.
Cell culture and transfection: CHO cells and HEK 293T EGFP reporter cells (provided by Dr. Gerald R. Crabtree) were cultured in Dulbecco's modified Eagle's medium (DMEM; GIBCO, Life Technologies, Carlsbad, Calif.) with 10% FBS (Atlanta Biologicals, Inc., Norcross, Ga.), 1×GlutaMAX (GIBCO, Life Technologies, Carlsbad, Calif.), and 1× penicillin/streptomycin (Pen/Strep; GIBCO, Life Technologies, Carlsbad, Calif.). 15,000-50,000 ells were plated in a 24-well or 8-well plate for 24 hours before transfection. DNA constructs (0.1 μg-0.5 μg) were added to 50× (v/w) Opti-MEM (GIBCO, Life Technologies, Carlsbad, Calif.), and then 3× (v/w) PEI (Polysciences, Inc., Warrington, Pa.) was mixed with the DNA. The mixture was incubated for 20 minutes at room temperature before adding it to cell cultures. The cells were grown for one day after transfection before experiments were performed.
Photo-irradiation: Irradiation at 365 nm was performed with an Axio Observer (Carl Zeiss AG, Oberkochen, Germany) microscope with an HBO103 W/2 mercury arc lamp (Carl Zeiss AG, Oberkochen, Germany). Irradiation was performed by using a DAPI filter (Carl Zeiss AG, Oberkochen, Germany), set with peak excitation at 365 nm (power density: 23 mW cm^2) and a spectral width of 50 nm. No objective lens was used for whole-well irradiation, which created an area of illumination that nearly completely covered one well of a 24-well plate. Light was transmitted through the bottom of the well of polystyrene plate. Irradiation at 405 nm was performed by using an adjustable focus violet purple laser pointer (LazerPoint SKU 0733579), with an excitation wavelength of 405 nm and 1000 mW intensity positioned 8 cm above the bottom of either a 96-well or 24-well plate and irradiated through the polystyrene lid. […]

[4] abbreviates: 10 μM, not irradiated, eight hours.

SMILES strings stand for the structures. Entries after “also recorded” stand apart in the source; their conditions may differ.

In the case of `COc1cc(COC(=O)/C=C(C)\C=C\[C@@]2(O)C(C)=CC(=O)CC2(C)C)c([N+](=O)[O-])cc1OC` [ABA-DMNB], the “chemical stability in biological buffer in the dark” value in series [1] was “no chemical decomposition; also recorded: stable at 37 °C in biological buffer in the dark for 24 hours”. The “subcellular location of EGFP-PYL” value in series [2] (365 nm UV irradiation 60 seconds) was “exported out of the nucleus; also recorded: markedly decreased intensities of EGFP in the nuclei within 15 minutes”; in series [2] (not irradiated) it was “EGFP distribution throughout the whole cells”; in series [2] (not irradiated, listed as ABADMNB) it was “distributed throughout the cell”. Further, the “reversibility of EGFP nuclear exportation” value in series [2] (after UV irradiation) is “reversed following three washes (within 30 minutes)”. Also, the eGFP expression entry in series [3] (setting [4]) is on record as “did not induce EGFP expression”; in series [3] (10 μM, pre-irradiated (pre-photocleaved) products, eight hours), “induced EGFP production”; in series [3] (irradiated in cell culture, 365 nm), “showed EGFP expression”.
Take `CC1=CC(=O)CC(C)(C)C1(O)/C=C/C(C)=C\C(=O)O` (stereo not shown) [ABA, abscisic acid, reference compound]: in series [2] (not irradiated), the “subcellular location of EGFP-PYL” value was “exported out of the nucleus; also recorded: markedly decreased intensities of EGFP in the nuclei within 15 minutes” and the “reversibility of EGFP nuclear exportation” value is reported as “reversed following three washes (within 30 minutes)”. The eGFP expression entry in series [3] (setting [4]) is reported as “induced EGFP production”.
For `CCN(CC)c1ccc2c(COC(=O)/C=C(C)\C=C\[C@@]3(O)C(C)=CC(=O)CC3(C)C)cc(=O)oc2c1` [ABA-DEACM], in series [1], the “chemical stability in biological buffer in the dark” value is reported as “no chemical decomposition; also recorded: stable chemically”. For the same compound, the EGFP-PYL nuclear export result in series [2] (10 μM, 405 nm light irradiation, fixed CHO cells) is reported as “ability to induce EGFP-PYL nuclear export”.

The values above are taken from patent US10907219B2, “Compositions and methods for controlling cellular function” (STC.UNM, priority 2014, dated 2021).
